≈ marks a conversion by molar mass, not a printed value.
System: M tb H37Rv
Assay: MIC determination against M tb H37Rv (green fluorescent protein reporter assay; MIC-MABA)
Assay type: cell-based, Mycobacterium tuberculosis
Details: Mycobacterium tuberculosis, H37RV, 240 h, read-out: M. TB H37Rv: MIC-MABA: MIC, M. tb H37Rv; 7H9 broth; 10 days exposure; MIC = lowest concentration inhibiting fluorescence by 90%

SMILES	MIC
O=C(NC1CC[Si]2(CCCCC2)CC1)c1cc2c(Cl)cncc2[nH]1 [MPL-260, 4-chloro-N-(6-silaspiro[5.5]undecan-3-yl)-1H-pyrrolo[2,3-c]pyridine-2-carboxamide]	0.0075 µg/mL (≈ 0.0207 µM)
Cc1cc(Cl)c2cc(C(=O)NC3CCCC[Si](C)(C)CC3)[nH]c2n1 (centres unmarked) [MPL-275, 4-chloro-N-(1,1-dimethylsilocan-4-yl)-6-methyl-1H-pyrrolo[2,3-b]pyridine-2-carboxamide]	0.031 µg/mL (≈ 0.0852 µM)
Cc1cc(Cl)c2cc(C(=O)NC3CC[Si]4(CCCC4)CC3)[nH]c2n1 [MPL-276, 4-chloro-6-methyl-N-(5-silaspiro[4.5]decan-8-yl)-1H-pyrrolo[2,3-b]pyridine-2-carboxamide]	0.015 µg/mL (≈ 0.0414 µM)
Cc1cc(Cl)c2cc(C(=O)NC3CC[Si]4(CCCCC4)CC3)[nH]c2n1 [MPL-277, 4-chloro-6-methyl-N-(6-silaspiro[5.5]undecan-3-yl)-1H-pyrrolo[2,3-b]pyridine-2-carboxamide]	0.045 µg/mL (≈ 0.12 µM)
Cc1cc(F)c2c(C)c(C(=O)NC3CC[Si]4(CCCC4)CC3)[nH]c2n1 [MPL-280, 4-fluoro-3,6-dimethyl-N-(5-silaspiro[4.5]decan-8-yl)-1H-pyrrolo[2,3-b]pyridine-2-carboxamide]	0.043 µg/mL (≈ 0.12 µM)
Cc1cc(F)c2c(C)c(C(=O)NC3CC[Si]4(CCCCC4)CC3)[nH]c2n1 [MPL-281, 4-fluoro-3,6-dimethyl-N-(6-silaspiro[5.5]undecan-3-yl)-1H-pyrrolo[2,3-b]pyridine-2-carboxamide]	0.0151 µg/mL (≈ 0.0404 µM)
Cc1nc2[nH]c(C(=O)NC3CCC[Si](C)(C)CC3)cc2c(F)c1F (centres unmarked) [MPL-282, N-(1,1-dimethylsilepan-4-yl)-4,5-difluoro-6-methyl-1H-pyrrolo[2,3-b]pyridine-2-carboxamide]	< 0.004 µg/mL
Cc1nc2[nH]c(C(=O)NC3CC[Si]4(CCCC4)CC3)cc2c(F)c1F [MPL-284, 4,5-difluoro-6-methyl-N-(5-silaspiro[4.5]decan-8-yl)-1H-pyrrolo[2,3-b]pyridine-2-carboxamide]	0.026 µg/mL (≈ 0.0715 µM)
Cc1nc2[nH]c(C(=O)NC3CC[Si]4(CCCCC4)CC3)cc2c(F)c1F [MPL-285, 4,5-difluoro-6-methyl-N-(6-silaspiro[5.5]undecan-3-yl)-1H-pyrrolo[2,3-b]pyridine-2-carboxamide]	0.016 µg/mL (≈ 0.0424 µM)
Cc1nc2[nH]c(C(=O)NC3CCCCCCC3)cc2c(F)c1F [MPL-290, N-cyclooctyl-4,5-difluoro-6-methyl-1H-pyrrolo[2,3-b]pyridine-2-carboxamide]	0.005 µg/mL (≈ 0.0156 µM)
Cc1nc2[nH]c(C(=O)NC3CCCC[Si](C)(C)CC3)cc2c(F)c1Cl (centres unmarked) [MPL-292, 5-chloro-N-(1,1-dimethylsilocan-4-yl)-4-fluoro-6-methyl-1H-pyrrolo[2,3-b]pyridine-2-carboxamide]	0.0271 µg/mL (≈ 0.071 µM)
Cc1nc2[nH]c(C(=O)N[C@H]3C[C@H]4C[C@H](C4(C)C)[C@@]3(C)O)cc2c(F)c1F [MPL-294, 4,5-difluoro-N-[(1R,2R,3S,5R)-2-hydroxy-2,6,6-trimethyl-norpinan-3-yl]-6-methyl-1H-pyrrolo[2,3-b]pyridine-2-carboxamide]	> 1 µg/mL
Cc1nc2[nH]c(C(=O)NC3CCC[Si](C)(C)CCC3)cc2c(F)c1F [MPL-301, N-(1,1-dimethylsilocan-5-yl)-4,5-difluoro-6-methyl-1H-pyrrolo[2,3-b]pyridine-2-carboxamide]	0.015 µg/mL (≈ 0.041 µM)
Cc1cc(Cl)c2cc(C(=O)NC3CCC[Si](C)(C)CCC3)[nH]c2n1 [MPL-305]	0.015 µg/mL (≈ 0.0412 µM)
Cc1ncc2[nH]c(C(=O)NC3CC[Si](C)(C)CC3)cc2c1F [MPL-318, N-(1,1-dimethylsilinan-4-yl)-4-fluoro-5-methyl-1H-pyrrolo[2,3-c]pyridine-2-carboxamide]	0.134 µg/mL (≈ 0.419 µM)
Cc1ncc2[nH]c(C(=O)NC3CC[Si]4(CCCC4)CC3)cc2c1F [MPL-319, 4-fluoro-5-methyl-N-(5-silaspiro[4.5]decan-8-yl)-1H-pyrrolo[2,3-c]pyridine-2-carboxamide]	0.499 µg/mL (≈ 1.44 µM)
Cc1ncc2[nH]c(C(=O)NC3CC[Si]4(CCCCC4)CC3)cc2c1F [MPL-320, 4-fluoro-5-methyl-N-(6-silaspiro[5.5]undecan-3-yl)-1H-pyrrolo[2,3-c]pyridine-2-carboxamide]	0.25 µg/mL (≈ 0.695 µM)
C[Si]1(C)CCC(NC(=O)c2cc3cc(C(F)(F)F)ncc3[nH]2)CC1 [MPL-321, N-(1,1-dimethylsilinan-4-yl)-5-(trifluoromethyl)-1H-pyrrolo[2,3-c]pyridine-2-carboxamide]	0.519 µg/mL (≈ 1.46 µM)
C[Si]1(C)CCC(NC(=O)c2cc3c(F)c(C(F)(F)F)ncc3[nH]2)CC1 [MPL-322, N-(1,1-dimethylsilinan-4-yl)-4-fluoro-5-(trifluoromethyl)-1H-pyrrolo[2,3-c]pyridine-2-carboxamide]	0.484 µg/mL (≈ 1.3 µM)
Cc1ncc2[nH]c(C(=O)NC3CC[Si](C)(C)CC3)cc2c1Cl [MPL-328, 4-chloro-N-(1,1-dimethylsilinan-4-yl)-5-methyl-1H-pyrrolo[2,3-c]pyridine-2-carboxamide]	0.061 µg/mL (≈ 0.182 µM)
C[Si]1(C)CCC(NC(=O)c2cc3c(Cl)c(C(F)(F)F)ncc3[nH]2)CC1 [MPL-329, 4-chloro-N-(1,1-dimethylsilinan-4-yl)-5-(trifluoromethyl)-1H-pyrrolo[2,3-c]pyridine-2-carboxamide]	0.491 µg/mL (≈ 1.26 µM)

SMILES	MIC
C[Si]1(C)CCC(NC(=O)c2cc3c(F)c(Cl)ncc3[nH]2)CC1 [MPL-345, 5-chloro-N-(1,1-dimethylsilinan-4-yl)-4-fluoro-1H-pyrrolo[2,3-c]pyridine-2-carboxamide]	0.498 µg/mL (≈ 1.47 µM)
C[Si]1(C)CCCC(NC(=O)c2cc3c(F)c(Cl)ncc3[nH]2)CC1 (centres unmarked) [MPL-346, 5-chloro-N-(1,1-dimethylsilepan-4-yl)-4-fluoro-1H-pyrrolo[2,3-c]pyridine-2-carboxamide]	0.464 µg/mL (≈ 1.31 µM)
O=C(NC1CC[Si]2(CCCCC2)CC1)c1cc2c(F)c(Cl)ncc2[nH]1 [MPL-348, 5-chloro-4-fluoro-N-(6-silaspiro[5.5]undecan-3-yl)-1H-pyrrolo[2,3-c]pyridine-2-carboxamide]	0.435 µg/mL (≈ 1.14 µM)
C[Si]1(C)CCC(NC(=O)c2cc3c(Cl)c(Cl)ncc3[nH]2)CC1 [MPL-349, 4,5-dichloro-N-(1,1-dimethylsilinan-4-yl)-1H-pyrrolo[2,3-c]pyridine-2-carboxamide]	0.068 µg/mL (≈ 0.191 µM)
C[Si]1(C)CCCC(NC(=O)c2cc3c(Cl)c(Cl)ncc3[nH]2)CC1 (centres unmarked) [MPL-350, 4,5-dichloro-N-(1,1-dimethylsilepan-4-yl)-1H-pyrrolo[2,3-c]pyridine-2-carboxamide]	0.247 µg/mL (≈ 0.667 µM)
Cc1ncc2[nH]c(C(=O)NC3CCC[Si](C)(C)CC3)cc2c1F (centres unmarked) [MPL-351, N-(1,1-dimethylsilepan-4-yl)-4-fluoro-5-methyl-1H-pyrrolo[2,3-c]pyridine-2-carboxamide]	0.248 µg/mL (≈ 0.744 µM)
Cc1ncc2[nH]c(C(=O)NC3CC[Si](C)(C)CC3)c(C)c2c1F [MPL-352, N-(1,1-dimethylsilinan-4-yl)-4-fluoro-3,5-dimethyl-1H-pyrrolo[2,3-c]pyridine-2-carboxamide]	0.122 µg/mL (≈ 0.366 µM)
Cc1ncc2[nH]c(C(=O)NC3CCC[Si](C)(C)CC3)c(C)c2c1F (centres unmarked) [MPL-353, N-(1,1-dimethylsilepan-4-yl)-4-fluoro-3,5-dimethyl-1H-pyrrolo[2,3-c]pyridine-2-carboxamide]	0.124 µg/mL (≈ 0.357 µM)
C[Si]1(C)CCCC(NC(=O)c2cc3c(F)c(C(F)(F)F)ncc3[nH]2)CC1 (centres unmarked) [MPL-366, N-(1,1-dimethylsilepan-4-yl)-4-fluoro-5-(trifluoromethyl)-1H-pyrrolo[2,3-c]pyridine-2-carboxamide]	0.492 µg/mL (≈ 1.27 µM)
O=C(NC1CC[Si]2(CCCC2)CC1)c1cc2c(F)c(C(F)(F)F)ncc2[nH]1 [MPL-367, 4-fluoro-N-(5-silaspiro[4.5]decan-8-yl)-5-(trifluoromethyl)-1H-pyrrolo[2,3-c]pyridine-2-carboxamide]	0.988 µg/mL (≈ 2.47 µM)
O=C(NC1CC[Si]2(CCCCC2)CC1)c1cc2c(F)c(C(F)(F)F)ncc2[nH]1 [MPL-368, 4-fluoro-N-(6-silaspiro[5.5]undecan-3-yl)-5-(trifluoromethyl)-1H-pyrrolo[2,3-c]pyridine-2-carboxamide]	0.49 µg/mL (≈ 1.19 µM)
Cc1c(C(F)(F)F)ncc2[nH]c(C(=O)NC3CC[Si](C)(C)CC3)cc12 [MPL-376, N-(1,1-dimethylsilinan-4-yl)-4-methyl-5-(trifluoromethyl)-1H-pyrrolo[2,3-c]pyridine-2-carboxamide]	0.188 µg/mL (≈ 0.509 µM)
COc1c(C(F)(F)F)ncc2[nH]c(C(=O)NC3CC[Si](C)(C)CC3)cc12 [MPL-379, N-(1,1-dimethylsilinan-4-yl)-4-methoxy-5-(trifluoromethyl)-1H-pyrrolo[2,3-c]pyridine-2-carboxamide]	0.332 µg/mL (≈ 0.861 µM)
CC(C)Oc1cncc2[nH]c(C(=O)NC3CC[Si](C)(C)CC3)cc12 [MPL-382, N-(1,1-dimethylsilinan-4-yl)-4-isopropoxy-1H-pyrrolo[2,3-c]pyridine-2-carboxamide]	0.368 µg/mL (≈ 1.07 µM)
C[Si]1(C)CCC(NC(=O)c2cc3ccc(-c4ccccc4)nc3[nH]2)CC1 [MPL-388, N-(1,1-dimethylsilinan-4-yl)-6-phenyl-1H-pyrrolo[2,3-b]pyridine-2-carboxamide]	0.012 µg/mL (≈ 0.033 µM)
C[Si]1(C)CCC(NC(=O)c2cc3ccc(-c4cccnc4)nc3[nH]2)CC1 [MPL-389, N-(1,1-dimethylsilinan-4-yl)-6-(3-pyridyl)-1H-pyrrolo[2,3-b]pyridine-2-carboxamide]	0.216 µg/mL (≈ 0.593 µM)
C[Si]1(C)CCC(NC(=O)c2cc3cc(-c4ccccc4)cnc3[nH]2)CC1 [MPL-391, N-(1,1-dimethylsilinan-4-yl)-5-phenyl-1H-pyrrolo[2,3-b]pyridine-2-carboxamide]	0.051 µg/mL (≈ 0.14 µM)
C[Si]1(C)CCC(NC(=O)c2cc3cc(-c4cccnc4)cnc3[nH]2)CC1 [MPL-392, N-(1,1-dimethylsilinan-4-yl)-5-(3-pyridyl)-1H-pyrrolo[2,3-b]pyridine-2-carboxamide]	0.464 µg/mL (≈ 1.27 µM)
C[Si]1(C)CCC(NC(=O)c2cc3cc(C(F)(F)F)ncc3[nH]2)C1 (centres unmarked) [MPL-402, N-(1,1-dimethylsilolan-3-yl)-5-(trifluoromethyl)-1H-pyrrolo[2,3-c]pyridine-2-carboxamide]	0.962 µg/mL (≈ 2.82 µM)
O=C(NC1CC[Si]2(CCCCC2)CC1)c1cc2cc(-c3ccccc3F)cnc2[nH]1 [MPL-434, 5-(2-fluorophenyl)-N-(6-silaspiro[5.5]undecan-3-yl)-1H-pyrrolo[2,3-b]pyridine-2-carboxamide]	0.061 µg/mL (≈ 0.145 µM)

Reference: US20230002372A1, “AZAINDOLE CARBOXAMIDE COMPOUNDS FOR THE TREATMENT OF MYCOBACTERIAL INFECTIONS” (THE GLOBAL ALLIANCE FOR TB DRUG DEVELOPMENT, INC., priority 2019, published 2023)
